Where two headings read alike, the source gives them in different places.
How the values were obtained:
Type in all cases: in vivo
[1] = test system: Haemaphysalis longicornis (non-blood-fed young ticks); test: Pesticidal activity on ticks, dry film contact application test; details: 48 h
Protocol: Any one of the present benzylamide compounds (12), (13), (15), (28), (29), (30), (31), (32), (33), (34), (37) and (38) (16 μg) was dissolved in acetone (0.2 mL), and into a screw bottle (20 mL volume) this solution was dropwised and capped the bottle. Then the capped-bottle was made rolling so that the inner-surface of the screw bottle was uniformly coated with the solution. The acrew bottle was capped off and allowed to dry up for 2 hours. Into the screw bottle, test ticks (Haemaphysalis longicornis, non-blood-fed young ticks, 10 ticks/group) were added, and capped the bottle. Two (2) days later, the number of dead ticks was examined and the mortality was calculated by the following formula:
Mortality (%)=100×(number of dead ticks/number of ticks tested)

[2] = test system: Haemaphysalis longicornis (young ticks) on mouse; test: Dropping application against mouse-infested ticks; details: topical, 48 h, 0.1% w/v solution, 200 μL dropwise to whole body surface of mouse, 2 days after application, read-out: Mortality
Protocol: The previous day of a dropping application, 30 test ticks (Haemaphysalis longicornis, young ticks) were deposited on a mouse. Before the dropping application, uninfested ticks were removed.
Any one of the present benzylamide compounds (12), (13), (15), (28), (29), (30), (31), (32), (33), (34), (36), (37) and (38) (5 mg) was dissolved in a mixture (5 mL) of propylene carbonate and diethylene glycol monoethyl ether in equal volume to prepare a 0.1% w/v solution. Said solution (200 μL) was applied dropwise to the whole body surface of a mouse with a pipette. To a control group, the mixture (200 μL) alone was applied. Said application was repeated 3 times per group.
Two (2) days after the application, the number of dead ticks was examined and the mortality was calculated by the following formula:
Mortality (%)=100×(number of dead ticks/infested ticks before dropping application)

[3] = test system: Ctenocephalides felis fleas on cat; test: Dropping application against cat-infested fleas
Protocol: The previous day of a dropping application, 50 test fleas (Ctenocephalides felis, adult ticks) were deposited on a cat. Before the dropping application, infested flaes were counted.
(§1) Each of the present benzylamide compound (13) (specified weight: 0.375 g, 0.75 g and 1.5 g) was dissolved in diethylene glycol monoethyl ether (6.0 g) to prepare a test solution. Said test solution was directly dropped on the skin of the neck and back of the cat while pushing aside fur thereon at a rate of 0.1 ml per 1 kg of the cat's body weight (dose amount: 5 mg/kg, 10 mg/kg and 20 mg/kg). This is referred to as a test group. On the other hand, diethylene glycol monoethyl ether alone was applied dropwise to a placebo group.
Two (2) days after the application, the number of living fleas, which were infesting the cats, was examined. When the examination was completed, all infested fleas were removed from the cats.
(§2) Both of 14 days and 28 days after the application, 50 test fleas (Ctenocephalides felis, adult ticks) were repeatedly deposited on a cat respectively. Two (2) days after the repeated deposition, the number of living ticks, which were infesting the […], was examined respectively. When each of the examination was completed, all infested ticks were removed from the dogs.
(§3) The infestation rate and control rate were calculated by the following formulae: […]
(§4) Method of calculating infestation rate and control rate at the initial stage (2 days) after the application:
Infestation rate (%) at X days after application=(number of living fleas at X days/number of living fleas before application)×100
(§5) Control rate (%) at X days after application {(infestation rate of test group before application infestation rate of test group at X days)/infestation rate of test group before application}×100
(§6) Method of calculating infestation rate and control rate at both 16 days and 30 days after the application:
Infestation rate (%) at X days after application=(number of living fleas at X days/number of living fleas repeatedly deposited)×100
Control rate (%) at X days after application {(infestation rate of placebo group at X days−infestation rate of test group at X days)/infestation rate of placebo group after X days}×100
In addition, if an infestation rate of a test group is higher than a placebo group, then the control rate is deemed to be 0%.

[4] = test system: Ctenocephalides felies fleas on mouse; test: Oral administration against mouse-infested fleas; details: test solution 20 mg/10 mL at 10 mL per 1 kg mouse body weight, 2 days after flea deposition
Protocol: (§7) The present benzylamide compound (13) (20 mg) was dissolved in dimethylformamide (680 mg), and thereto a corn oil was added to prepare a test solution (10 mL). Said test solution was orally administered to the mouse at the rate of 10 mL per 1 kg of the body weight of the mouse with a gastric sonde. To a control group, a 7% dimethylformamide/corn oil solution alone was orally administered. Each administration was repeated 3 times per group. After the administration, 20 test fleas (Ctenocephalides felies) were deposited on a mouse.
Two (2) days after the deposition, the number of dead fleas was examined and the mortality was calculated by the following formula:
Mortality (%)=100×(number of dead fleas/number of fleas tested)

[5] = test system: Haemaphysalis longicornis (young ticks) on mouse; test: Oral administration against mouse-infested ticks; details: test solution 20 mg/10 mL at 10 mL per 1 kg mouse body weight, 2 days after administration
Protocol: The previous day of an oral administration, 30 test ticks (Haemaphysalis longicornis, young ticks) were deposited on a mouse. Before the oral administration, uninfested ticks were removed.
as §7, with “group.” for “group. After the administration, 20 test fleas (Ctenocephalides felies) were deposited on a mouse.”
Two (2) days after the administration, the number of dead ticks was examined and the mortality was calculated by the following formula:
Mortality (%)=100×(number of dead ticks/infested ticks before oral administration)

[6] = test system: Haemaphysalis longicornis (young ticks) on dog (beagle); test: Oral administration against dog-infested ticks; details: oral gelatin capsule 40 mg/kg
Protocol: The previous day of an oral administration, 100 test ticks (Haemaphysalis longicornis, young ticks) were deposited on a dog (beagle). Before the oral administration, infested ticks were counted.
A gelatin capsule in which the present benzylamide compound (13) was filled into a gelatin capsule so that the amount of the present benzylamide compound […] administered was 40 mg per 1 kg of the dog's body weight was orally administered to the dog conpulsively. This is referred to as a test group. On the other hand, a geratin capsule alone was orally administered to a placebo group.
Two (2) days after the oral administration, the number of living ticks, which were infesting the dogs, was examined. When the examination was completed, all infested ticks were removed from the dogs.
as §3, §4
(§8) Infestation rate (%) at X days after application=(number of living ticks at X days/number of living ticks before application)×100
Control rate (%) at X days after application {(infestation rate of test group before application−infestation rate of test group at X days)/infestation rate of test group before application}×100 […]

[7] = test system: Haemaphysalis longicornis (young ticks) on dog (beagle); test: Dropping application against dog-infested ticks; details: dropping application 20 mg/kg
Protocol: The previous day of a dropping application, 100 test ticks (Haemaphysalis longicornis, young ticks) were deposited on a dog (beagle). Before the dropping application, infested ticks were counted.
as §1, with “The” for “Each of the”, “[…]” for “benzylamide”, “(1.5” for “(specified weight: 0.375 g, 0.75 g and 1.5”, “dog” for “cat”, “dog's” for “cat's”, “amount:” for “amount: 5 mg/kg, 10 mg/kg and”
Two (2) days after the application, the number of living ticks, which were infesting the dogs, was examined. When the examination was completed, all infested ticks were removed from the dogs.
as §2, with “of […] (14)” for “of 14”, “application, 100” for “application, 50”, “test ticks (Haemaphysalis longicornis, young” for “test fleas (Ctenocephalides felis, adult”, “a dog (beagle)” for “a cat”
as §3, §4, §8, §5, §6
Infestation rate (%) at X days after application=(number of living ticks at X days/number of living ticks repeatedly deposited)×100 […]

[8] = 16 μg as dry film on inner surface of 20 mL screw bottle, 2 days later, read-out: Mortality

SMILES	mortality at 16 µg/bottle [1, 8]	pest or weed control at 0.1 % strength [2]	other results
O=C(NCc1cc(C2=NOC(c3cc(Cl)cc(Cl)c3)(C(F)(F)F)C2)ccc1Cl)C1CCC1 (stereo not drawn) [(37), N-{2-chloro-[5-(3,5-dichlorophenyl)-5-trifluoromethyl-4,5-dihydroisoxazol-3-yl]benzyl}cyclobutanecarboxamide]	≥ 90%	≥ 60%	–
O=C(NCc1cc(C2=NOC(c3cc(Cl)cc(Cl)c3)(C(F)(F)F)C2)ccc1Cl)C1CC1 (stereo not drawn) [Compound (13)]	–	≥ 60%	mortality at 16 µg/bottle [1]: ≥ 90%; Flea control rate (%) at X days after the application ([3]; dropping application 5 mg/kg, 2 days): 92%; Flea control rate (%) at X days after the application ([3]; dropping application 5 mg/kg, 16 days): 97%; Flea control rate (%) at X days after the application ([3]; dropping application 5 mg/kg, 30 days): 97%; Flea control rate (%) at X days after the application ([3]; dropping application 10 mg/kg, 2 days): 100%; Flea control rate (%) at X days after the application ([3]; dropping application 10 mg/kg, 16 days): 100%; Flea control rate (%) at X days after the application ([3]; dropping application 10 mg/kg, 30 days): 100%; Flea control rate (%) at X days after the application ([3]; dropping application 20 mg/kg, 2 days): 100%; Flea control rate (%) at X days after the application ([3]; dropping application 20 mg/kg, 16 days): 100%; Flea control rate (%) at X days after the application ([3]; dropping application 20 mg/kg, 30 days): 100%; Mortality [4]: ≥ 70%; Mortality [5]: ≥ 70%; Tick control rates (%) at 2 days after the administration [6]: 91%; Tick control rates (%) at X days after the application, X = 2 (days) ([7]; 2 days): 35%; Tick control rates (%) at X days after the application, X = 16 (days) ([7]; 16 days (re-infested at 14 days)): 100%; Tick control rates (%) at X days after the application, X = 30 (days) ([7]; 30 days (re-infested at 28 days)): 100%
COCC(=O)NCc1cc(C2=NOC(c3cc(Cl)cc(Cl)c3)(C(F)(F)F)C2)ccc1Cl (stereo not drawn) [(30), N-{2-chloro-[5-(3,5-dichlorophenyl)-5-trifluoromethyl-4,5-dihydroisoxazol-3-yl]benzyl}methoxyacetamide]	≥ 90%	≥ 60%	–
N#CCC(=O)NCc1cc(C2=NOC(c3cc(Cl)cc(Cl)c3)(C(F)(F)F)C2)ccc1Cl (stereo not drawn) [(34), N-{2-chloro-[5-(3,5-dichlorophenyl)-5-trifluoromethyl-4,5-dihydroisoxazol-3-yl]benzyl}cyanoacetamide]	≥ 90%	≥ 60%	–
CCCC(=O)NCc1cc(C2=NOC(c3cc(Cl)cc(Cl)c3)(C(F)(F)F)C2)ccc1Cl (stereo not drawn) [(32)]	≥ 90%	≥ 60%	–
O=C(NCc1cc(C2=NOC(c3cc(Cl)cc(Cl)c3)(C(F)(F)F)C2)ccc1Cl)C1CCCC1 (stereo not drawn) [(38), N-{2-chloro-[5-(3,5-dichlorophenyl)-5-trifluoromethyl-4,5-dihydroisoxazol-3-yl]benzyl}cyclopentanecarboxamide]	≥ 90%	≥ 60%	–
CC(C)CC(=O)NCc1cc(C2=NOC(c3cc(Cl)cc(Cl)c3)(C(F)(F)F)C2)ccc1Cl (stereo not drawn) [(33), N-{2-chloro-[5-(3,5-dichlorophenyl)-5-trifluoromethyl-4,5-dihydroisoxazol-3-yl]benzyl}isovaleramide]	≥ 90%	≥ 60%	–
CC(=O)NCc1cc(C2=NOC(c3cc(Cl)cc(Cl)c3)(C(F)(F)F)C2)ccc1Cl (stereo not drawn) [(28), N-{2-chloro-[5-(3,5-dichlorophenyl)-5-trifluoromethyl-4,5-dihydroisoxazol-3-yl]benzyl}acetamide]	≥ 90%	≥ 60%	–
O=C(CCC(F)(F)F)NCc1cc(C2=NOC(c3cc(Cl)cc(Cl)c3)(C(F)(F)F)C2)ccc1Cl (stereo not drawn) [(29), N-{2-chloro-[5-(3,5-dichlorophenyl)-5-trifluoromethyl-4,5-dihydroisoxazol-3-yl]benzyl}-4,4,4-trifluorobutanamide]	≥ 90%	≥ 60%	–
CC(C)C(=O)NCc1cc(C2=NOC(c3cc(Cl)cc(Cl)c3)(C(F)(F)F)C2)ccc1Cl (stereo not drawn) [(31), N-{2-chloro-[5-(3,5-dichlorophenyl)-5-trifluoromethyl-4,5-dihydroisoxazol-3-yl]benzyl}isobutyramide]	≥ 90%	≥ 60%	–
O=C(NCc1cc(C2=NOC(c3cc(Cl)cc(Cl)c3)(C(F)(F)F)C2)ccc1Cl)C(F)(F)F (stereo not drawn) [(36), N-{2-chloro-[5-(3,5-dichlorophenyl)-5-trifluoromethyl-4,5-dihydroisoxazol-3-yl]benzyl}trifluoroacetamide]	–	≥ 60%	–
